“Also recorded” adds a separate entry of the source. Read-outs that look alike come from different tables or passages of the source.
Experiments:
[1] = biological target: T1, human NaV1.6 (Homo sapiens, UniProt Q9UQD0); experiment: Persistent (late) INa inhibition, ATX-II activated, automated patch clamp in HEK cells; format: cell-based; settings: for Persistent INa Hill slope: hNaV1.6 in HEK cells, ATX-II
T1 construct: HEK-293 cell lines stably expressing human NaV1.6 (NP_055006) were used; expressed in transfected cells

[2] = biological target: T1, human NaV1.6; experiment: Peak INa use-dependent block (UDB-10 Hz), automated patch clamp in HEK cells; format: cell-based; settings: for activity dependent block of peak INa: in words, FIGS. 7A-7C; for Peak INa UDB-10 Hz Hill slope: use-dependent block 10 Hz; for UDB preference to TB: TB IC50 / UDB IC50; for Ratio to Pers. INa (Peak INa UDB-10 Hz): UDB IC50 / persistent INa IC50
[3] = biological target: T1, human NaV1.6; experiment: Peak INa tonic block (TB), automated patch clamp in HEK cells; format: cell-based; settings: for Peak INa TB Hill slope: tonic block; for Ratio to Pers. INa (Peak INa TB): peak INa TB IC50 / persistent INa IC50
[4] = test system: MES-induced tonic hindlimb extension in male CD-1 mice; experiment: MES acute seizure model, protection from tonic hindlimb extension (Example 9); format: in vivo, mouse; settings: for ED50: Mus musculus, administered dose
Procedure: Male CD-1 mice (Vital River, Beijing, China) approximately 6 weeks old were obtained for the study. Body weights were between 20.5 grams and 38.5 grams at the time the experiments were carried out. […] Food and water were available ad libitum.
Treatment was conducted using Compound 1 and 35% 2-hydroxypropyl-β-cyclodextrin (35% HPBCD, used as a negative control). Compound 1 stock solution was prepared fresh each experiment day in 35% HPBCD and protected from light. The stock solution was diluted with vehicle for lower doses.
Mice were brought to the test room at least one hour before the start of the experiment. Mice were administered valproate (VPA; 400 mg/kg, intraperitoneally); or vehicle (35% HPBCD, 10 mL/kg, intraperitoneally); or Compound 1 (0.3 mg/kg, 1 mg/kg, 3 mg/kg or 10 mg/kg, orally) 30 minutes prior to the MES test.
The electroshock apparatus was set to deliver a 50 mA square-wave stimulus, with a 0.8 second duration, a pulse width of 10 milliseconds, and a frequency of 50 Hz. A pair of custom stainless-steel electrodes were soaked in 0.2% agar, and then the subject received bilateral transauricular stimulation through ear-clip electrodes. During the stimulation, mice were manually restrained then released immediately into an observation cage where they were monitored continuously for 60 seconds by an observer blinded to treatment group.
Mice were anesthetized with CO2 and terminal plasma and brain tissue samples were collected. […] The supernatant plasma was pipetted into Eppendorf tubes.
All statistical analyses were conducted using GraphPad Prism 9.3. Means were combined and standard error was calculated using the Satterthwaite Approximation to combine standard deviations. […] ED50 and EC50 values were calculated from these fit curves.

[5] = biological target: T2, hNaV1.6 (Homo sapiens, UniProt Q9UQD0); experiment: Peak INa voltage-dependent block (VDB), automated patch clamp in HEK cells; format: cell-based; settings: for Peak INa VDB Hill slope: voltage-dependent block; for Ratio to Pers. INa (Peak INa VDB): VDB IC50 / persistent INa IC50
T2 construct: expressed in transfected cells; host or cells: HEK cells

[6] = biological target: T2, hNaV1.6; experiment: Apparent binding (KON) and unbinding (KOFF) rates inferred from INa inhibition kinetics; format: cell-based; settings: read-out: apparent KON
[7] = test system: psychomotor seizures induced by 6-Hz electrical stimulation in wild-type CD-1 mice; experiment: 6-Hz psychomotor seizure model; format: in vivo, mouse; settings: 600 mg/kg intraperitoneally
Description: This study evaluated the efficacy of Compound 1 in attenuating psychomotor seizures induced by 6-Hz electrical stimulation at two different stimulation intensities (32 and 44 mA) in wild-type CD-1 mice. Psychomotor seizures are defined as the expression of at least one of the following behaviors: stun/immobility, forelimb clonus, straub tail or lateral head movement within 30 seconds of the stimulus. Protection is defined as a complete absence of the above behaviors within 30 seconds of the stimulus. Doses of Compound 1 used were 1 mg/kg, 3 mg/kg and 6 mg/kg administered orally. Valproate (600 mg/kg, administered intraperitoneally) was used as a positive control.
Male CD-1 mice (Charles River Laboratories; St. Constant, Quebec, CAN) were used for the study. Body weights at the time the experiment was carried out were 30-40 grams. The mice were group-housed in polycarbonate cages according to standard operating procedures. Animals were maintained on a 12-hour light/12 hour dark cycle, with all experimental activities occurring during the light phase. Food and water were available ad libitum. Mice acclimated to the test facility for at least 72 hours prior to testing.
Treatment was conducted using Compound 1 and 35% 2-hydroxypropyl-β-cyclodextrin (35% HPBCD, used as a negative control). Compound 1 stock solution was prepared fresh each experiment day in 35% HPBCD. […] Valproate was prepared fresh each experiment day in a vehicle of saline and dosed at 10 mL/kg.
Mice were administered vehicle (35% HPBCD), a single dose of Compound 1 (1 mg/kg, 3 mg/kg or 6 mg/kg) or valproate (600 mg/kg). Vehicle and Compound 1 were administered via oral gavage 30 minutes prior to […]. Valproate was administered as an intraperitoneal injection 60 minutes prior to the electrical stimulus.
Immediately prior to conducting the 6-Hz seizure test, a brief neurological assessment was performed. Each animal was visually assessed and received a score from 0 to 3 according to the following scoring system::neurological score of 0 corresponds to a normal status; neurological score of 1 corresponds to a modest decrease in spontaneous activity; neurological score of 2 corresponds to a marked decrease in spontaneous activity; and neurological score of 3 corresponds to loss of righting reflex.
Corneal electrodes moistened with saline (ECT unit 57800; Ugo Basile) were used to deliver the electrical stimulus (6-Hz, 0.2 millisecond pulse width, 3 seconds duration). The current delivered was either 32 mA or 44 mA. Immediately after the electrical stimulus, each mouse was monitored continuously for 30 seconds by an observer blinded to the treatment group. […] Mice were scored for the presence or absence of each seizure behavior, with a maximum total score of 4. […] At the end of the 6-Hz seizure test, plasma and brain samples were collected.
Mice were anesthetized with isoflurane, whole blood was collected via cardiac puncture and brains were harvested. Whole blood was collected in potassium EDTA tubes and centrifuged at ˜3300 g for 5 minutes at 4° C. to isolate plasma. Plasma and brain samples were stored at −80° C. and analyzed to determine levels of Compound 1.
All statistical analyses were conducted using GraphPad Prism 9.3. Seizure scores were compared using Kruskal-Wallis test, followed by Dunn's post hoc and p<0.05 was considered statistically significant.

[8] = 400 mg/kg intraperitoneally, listed as valproate

T2 sequence (Q9UQD0 whole entry): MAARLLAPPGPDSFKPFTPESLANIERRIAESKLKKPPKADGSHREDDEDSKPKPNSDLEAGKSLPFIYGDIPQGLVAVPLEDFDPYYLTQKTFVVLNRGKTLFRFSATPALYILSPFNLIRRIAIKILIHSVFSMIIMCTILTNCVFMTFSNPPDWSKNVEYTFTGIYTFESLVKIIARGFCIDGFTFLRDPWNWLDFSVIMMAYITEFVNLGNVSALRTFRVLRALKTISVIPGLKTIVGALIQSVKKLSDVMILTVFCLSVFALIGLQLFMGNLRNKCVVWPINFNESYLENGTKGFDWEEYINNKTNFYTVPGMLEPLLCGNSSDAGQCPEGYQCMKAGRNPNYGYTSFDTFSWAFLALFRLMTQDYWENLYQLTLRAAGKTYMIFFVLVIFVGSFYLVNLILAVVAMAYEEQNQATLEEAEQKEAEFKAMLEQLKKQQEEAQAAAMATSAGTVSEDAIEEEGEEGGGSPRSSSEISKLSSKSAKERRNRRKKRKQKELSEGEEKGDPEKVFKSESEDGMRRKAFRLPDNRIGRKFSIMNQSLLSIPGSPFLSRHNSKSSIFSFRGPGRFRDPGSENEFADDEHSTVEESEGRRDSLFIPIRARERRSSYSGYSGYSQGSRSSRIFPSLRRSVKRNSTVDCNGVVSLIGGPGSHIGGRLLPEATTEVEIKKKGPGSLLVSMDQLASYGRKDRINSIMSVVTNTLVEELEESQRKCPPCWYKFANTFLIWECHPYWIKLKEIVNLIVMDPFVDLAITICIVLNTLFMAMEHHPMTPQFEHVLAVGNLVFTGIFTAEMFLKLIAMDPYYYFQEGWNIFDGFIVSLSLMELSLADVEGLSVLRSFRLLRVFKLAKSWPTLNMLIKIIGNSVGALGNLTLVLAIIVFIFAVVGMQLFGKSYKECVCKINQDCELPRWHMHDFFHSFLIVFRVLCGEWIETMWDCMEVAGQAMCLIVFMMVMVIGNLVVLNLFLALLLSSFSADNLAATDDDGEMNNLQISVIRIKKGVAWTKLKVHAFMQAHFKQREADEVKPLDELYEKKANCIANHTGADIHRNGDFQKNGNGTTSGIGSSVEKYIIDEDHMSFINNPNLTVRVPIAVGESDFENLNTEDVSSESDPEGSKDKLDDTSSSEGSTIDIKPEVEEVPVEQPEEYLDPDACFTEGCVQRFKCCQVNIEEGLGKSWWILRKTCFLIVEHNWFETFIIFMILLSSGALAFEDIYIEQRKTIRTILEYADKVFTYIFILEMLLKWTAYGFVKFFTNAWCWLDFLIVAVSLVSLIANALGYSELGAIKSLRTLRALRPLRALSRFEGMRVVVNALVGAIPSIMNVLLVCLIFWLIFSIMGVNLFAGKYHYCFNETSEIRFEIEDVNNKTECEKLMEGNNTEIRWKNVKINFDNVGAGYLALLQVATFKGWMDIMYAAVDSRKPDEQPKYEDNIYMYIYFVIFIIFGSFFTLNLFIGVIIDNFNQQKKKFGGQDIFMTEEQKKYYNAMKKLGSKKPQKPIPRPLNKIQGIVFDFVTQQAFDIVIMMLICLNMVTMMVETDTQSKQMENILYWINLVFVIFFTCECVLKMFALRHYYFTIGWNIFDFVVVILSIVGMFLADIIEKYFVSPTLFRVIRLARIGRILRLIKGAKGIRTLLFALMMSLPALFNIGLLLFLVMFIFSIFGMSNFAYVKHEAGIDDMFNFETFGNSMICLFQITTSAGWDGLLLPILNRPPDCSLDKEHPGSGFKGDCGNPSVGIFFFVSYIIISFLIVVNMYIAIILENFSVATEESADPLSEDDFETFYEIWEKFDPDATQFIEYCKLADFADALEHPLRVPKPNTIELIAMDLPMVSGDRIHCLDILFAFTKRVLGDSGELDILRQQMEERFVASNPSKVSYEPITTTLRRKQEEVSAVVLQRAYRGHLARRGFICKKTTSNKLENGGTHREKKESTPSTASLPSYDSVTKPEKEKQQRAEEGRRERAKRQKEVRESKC
T1 sequence (Q9UQD0 whole entry): as above

SMILES | Persistent INa Hill slope [1] | Peak INa UDB-10 Hz Hill slope [2] | Peak INa TB Hill slope [3] | ED50 [4] | Peak INa VDB Hill slope [5] | Ratio to Pers. INa (Peak INa UDB-10 Hz) [2] | Ratio to Pers. INa (Peak INa TB) [3] | Ratio to Pers. INa (Peak INa VDB) [5] | other results
Nc1nnc(-c2cccc(Cl)c2Cl)c(N)n1 [Lamotrigine, lamotrigine] | (1.0) | (1.0) | (0.8) | 3.8 mg/kg | (0.9) | – | – | – | activity dependent block of peak INa [2]: minimal activity dependent block of peak INa
Cc1cc(N2CCc3cc(F)ccc3C2)cc(C)c1NC(=O)CC(C)(C)C [XEN1101] | – | – | – | 3.9 mg/kg | – | – | – | – | –
NC(=O)N1c2ccccc2C=Cc2ccccc21 [Carbamazepine, carbamazepine] | (1.1) | (0.9) | (1.0) | 5.4 mg/kg | (0.9) | 18 | 30 | 0.6 | preference for persistent INa relative to peak INa ([1]; in words, FIGS. 1A-1D): no preference for persistent INa; UDB preference to TB [2]: no UDB observed; activity dependent block of peak INa [2]: minimal activity dependent block of peak INa; kon ([6]; development of inhibition of hNaV1.6 INa): 11000 M⁻¹ s⁻¹
NC(=O)N1c2ccccc2CC(=O)c2ccccc21 [Oxcarbazepine, oxcarbazepine] | (1.0) | – | (1.7) | – | (1.1) | – | 8 | 0.3 | –
O=C1NC(=O)C(c2ccccc2)(c2ccccc2)N1 [Phenytoin, phenytoin] | (0.8) | (0.6) | – | – | (1.0) | 15 | – | 0.8 | –
CCCC(CCC)C(=O)O [Valproic acid] | – | – | – | – | – | – | – | – | neurological score (average) [7]: 1.2; spontaneous activity [7]: modest to marked decrease in spontaneous activity; sedation before MES test ([4]; 400 mg/kg intraperitoneally, listed as Valproate): mild to moderate sedation; protection against MES-induced hindlimb extension [4, 8]: all mice n=24 were seizure-free; also recorded: protected mice from MES-induced tonic hindlimb extension; sedation before MES test [4, 8]: nearly all valproate-treated mice showed mild to moderate sedation
COC[C@@H](NC(C)=O)C(=O)NCc1ccccc1 [Lacosamide, lacosamide] | (0.9) | (1.3) | – | – | (1.2) | 0.8 | – | 0.3 | –
NC(=O)O[C@@H](Cn1ncnn1)c1ccccc1Cl [Cenobamate, cenobamate] | (1.1) | (0.7) | (1.1) | 4.1 mg/kg | (0.9) | 11 | 24 | 0.9 | UDB preference to TB [2]: 2.3 ×; kon [6]: 19000 M⁻¹ s⁻¹
